ChEMBL document CHEMBL3112495, “Diphenylpyridylethanamine (DPPE)-based aminoheterocycles as cholesteryl ester transfer protein inhibitors” (Bioorg Med Chem Lett, 2014)
One block for each molecule: values may come before it.

Tests used:
[1] = Metabolic stability of the compound in rat liver microsomes assessed as compound remaining after 10 mins; format: ADME; settings: read-out: Stability
[2] = Metabolic stability of the compound in mouse liver microsomes assessed as compound remaining after 10 mins; format: ADME, Microsome; settings: read-out: Stability
Cytochrome P450 2D6 = Cytochrome P450 2D6 (Homo sapiens, UniProt P10635); assay: Inhibition of CYP2D6 (unknown origin); format: ADME
Cytochrome P450 3A4 [3] = target: T1, Cytochrome P450 3A4 (Homo sapiens, UniProt P08684); assay: Inhibition of CYP3A4 (unknown origin) using 7-benzyloxy-4-trifluoromethylcoumarin as substrate; format: ADME
[4] = target: T2, Cholesteryl ester transfer protein (Homo sapiens, UniProt P11597); assay: Inhibition of CETP in human whole plasma using [3H]-CE/HDL after 10 mins
T2 sequence (P11597 whole entry): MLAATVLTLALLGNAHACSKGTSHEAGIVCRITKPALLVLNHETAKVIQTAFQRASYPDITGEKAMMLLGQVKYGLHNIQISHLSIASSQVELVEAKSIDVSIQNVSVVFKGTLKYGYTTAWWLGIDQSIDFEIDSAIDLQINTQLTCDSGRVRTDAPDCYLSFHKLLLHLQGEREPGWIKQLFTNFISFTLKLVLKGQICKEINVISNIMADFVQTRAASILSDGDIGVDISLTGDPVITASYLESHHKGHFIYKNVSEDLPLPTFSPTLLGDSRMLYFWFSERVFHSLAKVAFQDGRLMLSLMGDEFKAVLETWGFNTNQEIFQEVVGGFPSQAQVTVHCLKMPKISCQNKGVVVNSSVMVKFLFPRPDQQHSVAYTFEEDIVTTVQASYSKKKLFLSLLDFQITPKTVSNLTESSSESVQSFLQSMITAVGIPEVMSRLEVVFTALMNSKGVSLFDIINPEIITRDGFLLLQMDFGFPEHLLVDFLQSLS

Cytochrome P450 3A4 [5] = target: T1, Cytochrome P450 3A4; assay: Inhibition of CYP3A4 (unknown origin) using benzyloxyresorufin as substrate; format: ADME
[6] = target: T3, Nuclear receptor subfamily 1 group I member 2 (Homo sapiens, UniProt O75469); assay: Activation of PXR (unknown origin)
T3 sequence (O75469 whole entry): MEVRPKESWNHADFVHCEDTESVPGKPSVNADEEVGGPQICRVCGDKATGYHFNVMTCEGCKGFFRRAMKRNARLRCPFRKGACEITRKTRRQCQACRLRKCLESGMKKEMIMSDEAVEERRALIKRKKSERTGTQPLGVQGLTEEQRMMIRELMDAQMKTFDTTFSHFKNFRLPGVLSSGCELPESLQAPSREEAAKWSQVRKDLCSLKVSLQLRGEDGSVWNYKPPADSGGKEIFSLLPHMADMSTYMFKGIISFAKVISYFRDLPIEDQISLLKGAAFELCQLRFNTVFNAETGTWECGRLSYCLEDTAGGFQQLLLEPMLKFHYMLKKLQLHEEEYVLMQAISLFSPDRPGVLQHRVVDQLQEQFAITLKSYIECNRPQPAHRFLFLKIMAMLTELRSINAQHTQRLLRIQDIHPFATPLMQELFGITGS

[7] = Metabolic stability of the compound in human liver microsomes assessed as compound remaining after 10 mins; format: ADME; settings: read-out: Stability
Cytochrome P450 2C19 = Cytochrome P450 2C19 (Homo sapiens, UniProt P33261); assay: Inhibition of CYP2C19 (unknown origin); format: ADME
[8] = target: T2, Cholesteryl ester transfer protein; assay: Inhibition of human recombinant CETP using [3H]-CE/HDL by scintillation proximity assay
PXR = target: T4, PXR (Homo sapiens, UniProt O75469); assay: Activation of PXR (unknown origin) relative to rifampicin
T4 sequence (O75469 whole entry): T3 sequence (O75469 whole entry)

Cytochrome P450 1A2 = target: T5, Cytochrome P450 1A2 (Homo sapiens, UniProt P05177); assay: Inhibition of CYP1A2 (unknown origin); format: ADME
T5 sequence (P05177 whole entry): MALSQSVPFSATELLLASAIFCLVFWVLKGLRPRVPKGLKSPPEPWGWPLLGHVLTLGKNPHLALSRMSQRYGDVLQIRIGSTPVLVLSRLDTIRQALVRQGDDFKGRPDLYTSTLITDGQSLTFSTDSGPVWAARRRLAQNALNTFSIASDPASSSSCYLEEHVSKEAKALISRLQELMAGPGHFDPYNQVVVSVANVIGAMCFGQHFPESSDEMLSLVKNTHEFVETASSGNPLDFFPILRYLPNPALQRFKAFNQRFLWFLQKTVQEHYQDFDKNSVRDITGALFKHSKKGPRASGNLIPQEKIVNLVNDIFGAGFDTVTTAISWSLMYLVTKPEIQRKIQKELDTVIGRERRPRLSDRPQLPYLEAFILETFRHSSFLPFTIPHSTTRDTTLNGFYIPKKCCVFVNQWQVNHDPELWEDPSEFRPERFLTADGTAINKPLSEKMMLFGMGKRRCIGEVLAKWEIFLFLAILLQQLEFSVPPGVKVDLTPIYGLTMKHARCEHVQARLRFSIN

Cytochrome P450 2C9 = Cytochrome P450 2C9 (Homo sapiens, UniProt P11712); assay: Inhibition of CYP2C9 (unknown origin); format: ADME
[9] = Plasma concentration in hCETP/apo B-100 transgenic mouse at 30 mg/kg, po after 2 hrs; format: ADME, organism-based; design: dose 30 mg/kg, route oral
[10] = AUC in hCETP/apo B-100 transgenic mouse at 30 mg/kg, po; format: ADME, organism-based; design: dose 30 mg/kg, route oral; settings: plasma
Mus musculus = assay: Inhibition of CETP in hCETP/apo B-100 transgenic mouse at 30 mg/kg, po after 8 hrs; format: functional
[11] = Plasma concentration in hCETP/apo B-100 transgenic mouse at 30 mg/kg, po after 4 hrs; format: ADME, organism-based; design: dose 30 mg/kg, route oral

Chain of Cytochrome P450 2C9 (P11712 whole entry): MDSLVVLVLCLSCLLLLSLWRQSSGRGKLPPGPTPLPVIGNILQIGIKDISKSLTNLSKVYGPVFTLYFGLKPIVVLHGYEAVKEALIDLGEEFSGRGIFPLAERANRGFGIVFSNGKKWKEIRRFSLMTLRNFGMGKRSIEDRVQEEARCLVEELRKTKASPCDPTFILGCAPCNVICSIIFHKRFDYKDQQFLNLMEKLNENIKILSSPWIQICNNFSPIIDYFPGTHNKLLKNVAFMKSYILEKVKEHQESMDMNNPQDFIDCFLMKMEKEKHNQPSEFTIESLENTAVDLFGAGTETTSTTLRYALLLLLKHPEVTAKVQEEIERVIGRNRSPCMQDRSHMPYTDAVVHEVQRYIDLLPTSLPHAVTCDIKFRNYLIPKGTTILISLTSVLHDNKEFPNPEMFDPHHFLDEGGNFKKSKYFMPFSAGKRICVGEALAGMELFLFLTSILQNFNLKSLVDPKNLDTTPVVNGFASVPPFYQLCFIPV
Chain of Cytochrome P450 2C19 (P33261 whole entry): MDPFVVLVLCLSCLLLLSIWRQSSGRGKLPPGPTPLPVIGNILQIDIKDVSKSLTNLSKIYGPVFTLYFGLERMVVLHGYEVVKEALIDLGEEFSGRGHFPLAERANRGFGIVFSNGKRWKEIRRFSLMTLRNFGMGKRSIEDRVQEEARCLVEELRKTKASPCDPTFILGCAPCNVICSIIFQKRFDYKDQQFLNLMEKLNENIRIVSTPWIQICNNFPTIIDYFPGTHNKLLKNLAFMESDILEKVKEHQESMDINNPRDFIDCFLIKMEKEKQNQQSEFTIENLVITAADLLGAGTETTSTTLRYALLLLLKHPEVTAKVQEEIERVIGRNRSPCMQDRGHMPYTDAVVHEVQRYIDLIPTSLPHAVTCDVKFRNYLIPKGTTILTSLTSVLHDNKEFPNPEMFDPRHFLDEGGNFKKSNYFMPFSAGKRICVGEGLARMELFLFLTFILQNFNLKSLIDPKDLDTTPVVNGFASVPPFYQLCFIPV
T1 sequence (P08684 whole entry): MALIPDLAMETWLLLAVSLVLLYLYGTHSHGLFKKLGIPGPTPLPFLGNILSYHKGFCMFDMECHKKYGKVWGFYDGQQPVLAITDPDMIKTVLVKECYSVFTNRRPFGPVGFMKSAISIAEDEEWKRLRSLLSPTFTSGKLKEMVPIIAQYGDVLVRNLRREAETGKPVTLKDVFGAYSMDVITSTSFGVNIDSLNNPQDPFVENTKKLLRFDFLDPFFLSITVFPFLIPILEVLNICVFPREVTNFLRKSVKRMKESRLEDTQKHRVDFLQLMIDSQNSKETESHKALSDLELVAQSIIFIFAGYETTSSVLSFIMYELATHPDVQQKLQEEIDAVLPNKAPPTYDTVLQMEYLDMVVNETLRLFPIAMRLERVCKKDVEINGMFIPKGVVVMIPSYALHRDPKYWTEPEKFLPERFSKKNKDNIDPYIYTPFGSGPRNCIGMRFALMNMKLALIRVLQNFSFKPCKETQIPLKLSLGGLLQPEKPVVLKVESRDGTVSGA
Chain of Cytochrome P450 2D6 (P10635 whole entry): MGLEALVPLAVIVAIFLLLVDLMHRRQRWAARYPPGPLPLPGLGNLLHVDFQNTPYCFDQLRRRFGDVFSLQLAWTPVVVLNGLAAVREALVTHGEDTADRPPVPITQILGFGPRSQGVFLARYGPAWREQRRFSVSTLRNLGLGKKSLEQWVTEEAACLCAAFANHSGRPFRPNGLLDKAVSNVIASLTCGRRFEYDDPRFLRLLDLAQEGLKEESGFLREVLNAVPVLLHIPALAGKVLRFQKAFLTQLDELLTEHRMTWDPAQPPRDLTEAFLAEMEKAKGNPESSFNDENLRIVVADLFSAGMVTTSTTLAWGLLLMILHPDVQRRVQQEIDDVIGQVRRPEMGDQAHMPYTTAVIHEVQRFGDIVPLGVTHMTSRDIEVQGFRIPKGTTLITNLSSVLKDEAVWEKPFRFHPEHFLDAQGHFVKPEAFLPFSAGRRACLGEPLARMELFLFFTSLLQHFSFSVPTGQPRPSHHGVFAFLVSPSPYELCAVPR

Compound: O=C(NC1CCCC1)N[C@@](Cc1ccccc1)(c1cc(F)cc(C(F)(F)F)c1)c1ccc(Cl)cn1
- concentration at 2 h [9]: 1750 nM
- AUC [10]: 5.71 µM·h
- inhibition in vivo at 30 mg/kg (Mus musculus): 56%
- concentration at 4 h [11]: 1010 nM

Compound: Cc1cnc(NC(Cc2ccccc2)(c2cc(F)cc(C(F)(F)F)c2)c2ccc(Cl)cn2)s1 (stereo not given)
- IC50 [8]: 1.1 µM

Compound: O=C(NC1CCCC1)N[C@@](Cc1ccccc1)(c1cc(F)cc(OC(F)(F)C(F)F)c1)c1ccc(Cl)cn1
- remaining at 10 min [1]: 12%
- remaining at 10 min [2]: 4%
- IC50 (Cytochrome P450 2D6): 15 µM
- IC50 (Cytochrome P450 3A4 [3]): 8.8 µM
- IC50 (Cytochrome P450 3A4 [5]): 3.6 µM
- EC60 [6]: 0.7 µM
- remaining at 10 min [7]: 10%
- IC50 (Cytochrome P450 2C19): 17 µM
- Emax (PXR): 88%
- IC50 (Cytochrome P450 1A2): 40 µM
- IC50 (Cytochrome P450 2C9): 4.4 µM

Compound: COC(=O)c1sc(NC(Cc2ccccc2)(c2cc(F)cc(C(F)(F)F)c2)c2ccc(Cl)cn2)nc1C (stereo not given)
- IC50 [8]: 32 µM

Compound: Fc1cc(C(F)(F)F)cc(C(Cc2ccccc2)(Nc2ncc(-c3ccccc3)o2)c2ccc(Cl)cn2)c1 (stereo not given)
- IC50 [8]: 12 µM

Compound: CCc1csc(NC(Cc2ccccc2)(c2cc(F)cc(C(F)(F)F)c2)c2ccc(Cl)cn2)n1 (stereo not given)
- IC50 [8]: 0.7 µM

Compound: Cn1nnc(NC(Cc2ccccc2)(c2cc(F)cc(C(F)(F)F)c2)c2ccc(Cl)cn2)n1 (stereo not given)
- IC50 [8]: 11 µM

Compound: Fc1cc(C(F)(F)F)cc(C(Cc2ccccc2)(Nc2nc3ccccc3o2)c2ccc(Cl)cn2)c1 (stereo not given)
- IC50 [8]: 2 µM

More lines, in order of falling IC50 [8], values ahead:

- IC50 [4]: 20.2 µM
- IC50 [8]: 0.2 µM
Compound: Fc1cc(C(F)(F)F)cc(C(Cc2ccccc2)(Nc2nc3c(s2)CCCC3)c2ccc(Cl)cn2)c1 (racemic)

- IC50 [4]: 19.6 µM
- IC50 [8]: 0.2 µM
Compound: Fc1cc(C(F)(F)F)cc(C(Cc2ccccc2)(Nc2nc3ccccc3[nH]2)c2ccc(Cl)cn2)c1 (stereo not given)

- remaining at 10 min [1]: 95%
- remaining at 10 min [2]: 62%
- IC50 (Cytochrome P450 2D6): 29 µM
- IC50 (Cytochrome P450 3A4 [3]): 32 µM
- IC50 [4]: 9.5 µM
- IC50 (Cytochrome P450 3A4 [5]): 40 µM
- EC60 [6]: > 17 µM
- remaining at 10 min [7]: 56%
- IC50 (Cytochrome P450 2C19): 2 µM
- IC50 [8]: 0.05 µM
- Emax (PXR): 56%
- IC50 (Cytochrome P450 1A2): 40 µM
- IC50 (Cytochrome P450 2C9): 40 µM
Compound: Fc1cc(OC(F)(F)C(F)F)cc([C@@](Cc2ccccc2)(Nc2nc3cc(F)ccc3[nH]2)c2ccc(Cl)cn2)c1

- remaining at 10 min [1]: 100%
- remaining at 10 min [2]: 72%
- IC50 (Cytochrome P450 2D6): 40 µM
- IC50 (Cytochrome P450 3A4 [3]): 24 µM
- IC50 [4]: 6.4 µM
- IC50 (Cytochrome P450 3A4 [5]): 19 µM
- EC60 [6]: > 5.6 µM
- remaining at 10 min [7]: 68%
- IC50 (Cytochrome P450 2C19): 3 µM
- IC50 [8]: 0.04 µM
- Emax (PXR): 25%
- IC50 (Cytochrome P450 1A2): 40 µM
- IC50 (Cytochrome P450 2C9): 15 µM
Compound: Fc1cc(OC(F)(F)C(F)F)cc([C@@](Cc2ccccc2)(Nc2nc3c(F)cc(F)cc3[nH]2)c2ccc(Cl)cn2)c1

- IC50 [4]: 17.3 µM
- IC50 [8]: 0.04 µM
Compound: Cc1nc(N[C@](Cc2ccccc2)(c2cc(F)cc(C(F)(F)F)c2)c2ccc(Cl)cn2)sc1C

- IC50 [4]: 4.2 µM
- IC50 [8]: 0.02 µM
Compound: Fc1cc(OC(F)(F)C(F)F)cc([C@@](Cc2ccccc2)(Nc2nc3c(s2)CCCC3)c2ccc(Cl)cn2)c1
